Earlier results as cited in US20170281607A1, “PHARMACEUTICAL COMPOSITIONS AND METHODS FOR THE TREATMENT OF DIABETES” (University of Limerick, priority 2016, published 2017).

Conditions: in vivo

## COc1ccc2c(c1)[nH]c1c(C)nccc12 [harmine, 7-Methoxy-1-methyl-9H-pyrido[3,4-b]indole]
  half-life: 1 to 3 h
